The values that follow are results of earlier work, collected in patent US6391332B1, “Therapeutic micronutrient composition for severe trauma, burns and critical illness” (Baxter International, Inc., priority 2000, dated 2002).

For data set [1], the system named is critically ill patients. To be noted: glutamine supplementation, clinical trials.
The conditions of data set [2]: doses exceeding 40 grams a day.
In data set [3] the test system is burn patients. The conditions noted are these: 2-10 grams given during burn resuscitation.

Turning to `NC(=O)CC[C@H](N)C(=O)O` [glutamine, L-glutamine], the infection rate entry in data set [1] was “decreased infection rate”.
`N=C(N)NCCC[C@H](N)C(=O)O` [arginine, L-arginine]: the toxicity entry in data set [2] was “non-toxic”.
Consider `O=C1O[C@H]([C@@H](O)CO)C(O)=C1O` [ascorbic acid], for which, in data set [3], the “vascular permeability and fluid requirements” value is “significantly decrease”.
